Measurements published in paper PMC5013292, “A Putative Bacterial ABC Transporter Circumvents the Essentiality of Signal Peptidase” (mBio, 2016).
Converted amounts (≈) assume the structure as drawn.

Key:
[1] = test system: S. aureus USA300 cro/cI (M1V) (GNE0117); assay: MIC, cro/cI(M1V) mutant; assay type: cell-based; conditions: for effect of cro/cI mutation on sensitivity to antibiotics: result in words, versus USA300 WT
Procedure: (§1) MICs were determined according to the standard protocol from the Clinical and Laboratory Standards Institute ([23]). Briefly, S. aureus bacteria were harvested from regular MHA plates that had been cultured for ~20 h at 37°C. Serial dilutions of compound 103 were incubated with bacteria at approximately 10^6 CFU (CFU)/ml in MHB in round-bottom 96 well plates (Corning, Corning, NY) for 22 h at 37°C. MICs were determined by the lowest concentration of compound 103 showing absence of growth by visual inspection.

[2] = test system: S. aureus USA300 wild type; assay: microbe, parasite or virus in culture; assay type: cell-based
Excerpt: Wild-type clinical S. aureus strains were obtained from the Network on Antibiotic Resistance in Staphylococcus aureus (NARSA/BEI) program. MRSA strain USA300 refers throughout this paper to strain NRS384 from NARSA/BEI. A global panel of 102 clinical S. aureus isolates was selected from the collection of International Health Management Associates, Inc. (IHMA; Schaumburg, IL), based on diversity of geographic locations, antibiotic resistance profiles, and sites of infection. Bacteria were cultured on cation-adjusted Mueller-Hinton agar (MHA) plates or in cation-adjusted Mueller-Hinton broth (MHB). Bacterial strains used in this study are listed in Table S5 in the supplemental material.
as §1

[3] = test system: USA300 WT strain (strain GNE0023); assay: MIC, parental USA300 WT strain GNE0023; assay type: cell-based, S. aureus
Procedure: as §1
(§2) To generate mutations in SAUSA300_0351, _0352, and _0353 genes by homologous recombination, we transformed USA300 Δmcr using targeting constructs created in the vector pIMAY ([24]). To generate mutations in SAUSA300_0351, _0352, and _0353 genes in a cro/cI mutant background, we selected colonies from USA300 Δmcr cultured on plates containing fourfold the MIC of compound 103. Sequencing of PCR products of the cro/cI gene from resistant colonies yielded a clone with a Q16stop codon mutation in cro/cI (strain GNE0173). We further mutated SAUSA300_0351, _0352, and _0353 in this USA300 Δmcr cro/cI (Q16stop) clone to study the contributions of these three genes to cro/cI-mediated resistance.

[4] = test system: S. aureus USA300 SAUSA300_0352(K44A) mutant (strain GNE0174); assay: MIC, K44A mutant GNE0174; assay type: cell-based
Procedure: as §1, §2

[5] = S. aureus USA300 cro/cI (M1V) (GNE0117), Table S2

Compound	effect of cro/cI mutation on sensitivity to antibiotics [1]	MIC ([2]; Staphylococcus aureus, USA300)	also measured
COc1c(N2CCNC(C)C2)c(F)cc2c(=O)c(C(=O)O)cn(C3CC3)c12 (stereo not drawn) [Gatifloxacin]	did not reduce sensitivity	0.5 µg/mL (≈ 1.33 µM)	
CN[C@H](CC(C)C)C(=O)N[C@H]1C(=O)N[C@@H](CC(N)=O)C(=O)N[C@H]2C(=O)N[C@H]3C(=O)N[C@H](C(=O)N[C@H](C(=O)O)c4cc(O)cc(O)c4-c4cc3ccc4O)[C@H](O)c3ccc(c(Cl)c3)Oc3cc2cc(c3O[C@@H]2O[C@H](CO)[C@@H](O)[C@H](O)[C@H]2O[C@H]2C[C@](C)(N)[C@H](O)[C@H](C)O2)Oc2ccc(cc2Cl)[C@H]1O [Vancomycin]	did not reduce sensitivity		MIC [1, 5]: 1 µg/mL (≈ 0.69 µM); MIC ([2]; S. aureus USA300 WT, Table S2): 2 µg/mL (≈ 1.38 µM)
CC[C@H]1OC(=O)[C@H](C)[C@@H](O[C@H]2C[C@@](C)(OC)[C@@H](O)[C@H](C)O2)[C@H](C)[C@@H](O[C@@H]2O[C@H](C)C[C@H](N(C)C)[C@H]2O)[C@](C)(O)C[C@@H](C)C(=O)[C@H](C)[C@@H](O)[C@]1(C)O [Erythromycin]	did not reduce sensitivity	> 64 µg/mL	MIC ([1]; Staphylococcus aureus, USA300): > 64 µg/mL
CCC[C@@H]1C[C@@H](C(=O)N[C@@H]([C@H]2O[C@H](SC)[C@H](O)[C@@H](O)[C@H]2O)[C@H](C)Cl)N(C)C1 [Clindamycin]	did not reduce sensitivity	0.25 µg/mL (≈ 0.588 µM)	
nisin			MIC [3]: 200 µg/mL; MIC [4]: 200 µg/mL
CO[C@@H]1[C@@H](OC(N)=O)[C@@H](O)[C@H](Oc2ccc3c(O)c(NC(=O)c4ccc(O)c(CC=C(C)C)c4)c(=O)oc3c2C)OC1(C)C [Novobiocin]	did not reduce sensitivity	0.25 µg/mL (≈ 0.408 µM)	
protamine			MIC [3]: 8 µg/mL; MIC [4]: 8 µg/mL
CO[C@H]1/C=C/O[C@@]2(C)Oc3c(C)c(O)c4c(O)c(c(/C=N/N5CCN(C)CC5)c(O)c4c3C2=O)NC(=O)/C(C)=C\C=C\[C@H](C)[C@H](O)[C@@H](C)[C@@H](O)[C@@H](C)[C@H](OC(C)=O)[C@@H]1C [Rifampicin]	did not reduce sensitivity	0.06 µg/mL (≈ 0.0729 µM)	
CC(=O)NC[C@H]1CN(c2ccc(N3CCOCC3)c(F)c2)C(=O)O1 [Linezolid]	did not reduce sensitivity	4 µg/mL (≈ 11.9 µM)	
CCCCCCCCCC(=O)N[C@@H](Cc1c[nH]c2ccccc12)C(=O)N[C@H](CC(N)=O)C(=O)N[C@@H](CC(=O)O)C(=O)N[C@@H]1C(=O)NCC(=O)N[C@@H](CCCN)C(=O)N[C@@H](CC(=O)O)C(=O)N[C@H](C)C(=O)N[C@@H](CC(=O)O)C(=O)NCC(=O)N[C@H](CO)C(=O)N[C@@H]([C@H](C)CC(=O)O)C(=O)N[C@@H](CC(=O)c2ccccc2N)C(=O)O[C@@H]1C [Daptomycin]	did not reduce sensitivity		MIC [1, 5]: 2 µg/mL (≈ 1.23 µM); MIC ([2]; S. aureus USA300 WT, Table S2): 2 µg/mL (≈ 1.23 µM)
CNC(C)C1CCC(N)C(OC2C(N)CC(N)C(OC3OCC(C)(O)C(NC)C3O)C2O)O1 (stereo not drawn) [Gentamycin]	did not reduce sensitivity	1 µg/mL (≈ 2.09 µM)	
Cc1onc(-c2ccccc2)c1C(=O)N[C@@H]1C(=O)N2[C@@H]1SC(C)(C)[C@@H]2C(=O)O [Oxacillin]	did not reduce sensitivity	64 µg/mL (≈ 159 µM)	
